These results are taken from patent US20020187514A1 (priority 1999, published 2002).

The target in assay [1] is Potassium Channel, Ca2+ Act., VS. As to the kind of experiment: Potassium Channel, Ca2+ Act., VS; [125I]Charybdotoxin. The assay is classed as binding. As to conditions: reference compound, QA/QC; read-out: Ref Kj.
For assay [2], the target named is Neurokinin, NK3 (NKB). The assay is classed as binding. To be noted: read-out: Ref Kj.
Assay [3] deals with Glutamate Transport. As to the kind of experiment: Glutamate Transport; [3H]Glutamic Acid. Type of assay: biochemical. To be noted: read-out: Ref Kj.
In assay [4] the target is Choline Acetyltransferase. As to the kind of experiment: Choline Acetyltransferase; substrate [14C]Acetyl Coenzyme. Type of assay: biochemical. As to conditions: reference compound, QA/QC; read-out: Ref Kj.
Assay [5] concerns the target Protein Phosphatase, PP2A (Homo sapiens, UniProt P67775). Nature of the assay: Protein Phosphatase, PP2A (Human); substrate DiFMUP. The assay is classed as biochemical. As to conditions: reference compound, QA/QC; read-out: Ref Kj.
Assay [6] has as its target T1, Cannabinoid, CB1 (Homo sapiens, UniProt P21554).
T1 construct: expressed in transfected cells
As to the kind of experiment: Cannabinoid, CB1 (Human recombinant); [3H]-CP55940. The assay is classed as binding.

The target in assay [7] is T2, Sigma 1 (Cavia porcellus, UniProt Q60492).
T2 construct: Fresh guinea pig whole brain was obtained following decapitation; from tissue; host or cells: guinea pig whole brain membranes
T2 sequence (Q60492 whole entry): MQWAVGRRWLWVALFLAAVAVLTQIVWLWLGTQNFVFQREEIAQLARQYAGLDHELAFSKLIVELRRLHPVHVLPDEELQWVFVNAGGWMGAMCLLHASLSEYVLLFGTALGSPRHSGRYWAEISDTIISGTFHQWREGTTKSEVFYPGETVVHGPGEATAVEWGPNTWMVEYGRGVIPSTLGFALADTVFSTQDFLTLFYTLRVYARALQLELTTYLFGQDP
As to the kind of experiment: Sigma 1; [3H]-(+)-Pentazocine. The assay is classed as binding, guinea pig. As to conditions: reference compound, QA/QC; read-out: Ref Kj.

Assay [8] has as its target Glutamate, MK-801 Site. As to the kind of experiment: Glutamate, MK-801 Site; [3H]MK-801. The assay is classed as binding. As to conditions: reference compound, QA/QC; read-out: Ref Kj.
For assay [9], the target named is Glutamate, NMDA, Phencyclidine Site. As to the kind of experiment: Glutamate, NMDA, Phencyclidine Site; [3H]TCP. Type of assay: binding. As to conditions: reference compound, QA/QC; read-out: Ref Kj.
Assay [10] addresses T3, Protein Tyrosine Phosphatase, PTP-LAR-D1 (Homo sapiens, UniProt P10586).
T3 construct: PTP-LAR-D1
Nature of the assay: Protein Tyrosine Phosphatase, PTP-LAR-D1 (Human); substrate pNPP. As to conditions: read-out: Ref Kj. Type of assay: biochemical.

In assay [11] the target is Protein Tyrosine Phosphatase, PTP-CD45 (Homo sapiens, UniProt P08575). As to the kind of experiment: Protein Tyrosine Phosphatase, PTP-CD45 (Human); substrate pNPP. The assay is classed as biochemical. As to conditions: read-out: Ref Kj.
Protein Tyrosine Phosphatase, PTP-CD45, sequence (P08575 26-1306): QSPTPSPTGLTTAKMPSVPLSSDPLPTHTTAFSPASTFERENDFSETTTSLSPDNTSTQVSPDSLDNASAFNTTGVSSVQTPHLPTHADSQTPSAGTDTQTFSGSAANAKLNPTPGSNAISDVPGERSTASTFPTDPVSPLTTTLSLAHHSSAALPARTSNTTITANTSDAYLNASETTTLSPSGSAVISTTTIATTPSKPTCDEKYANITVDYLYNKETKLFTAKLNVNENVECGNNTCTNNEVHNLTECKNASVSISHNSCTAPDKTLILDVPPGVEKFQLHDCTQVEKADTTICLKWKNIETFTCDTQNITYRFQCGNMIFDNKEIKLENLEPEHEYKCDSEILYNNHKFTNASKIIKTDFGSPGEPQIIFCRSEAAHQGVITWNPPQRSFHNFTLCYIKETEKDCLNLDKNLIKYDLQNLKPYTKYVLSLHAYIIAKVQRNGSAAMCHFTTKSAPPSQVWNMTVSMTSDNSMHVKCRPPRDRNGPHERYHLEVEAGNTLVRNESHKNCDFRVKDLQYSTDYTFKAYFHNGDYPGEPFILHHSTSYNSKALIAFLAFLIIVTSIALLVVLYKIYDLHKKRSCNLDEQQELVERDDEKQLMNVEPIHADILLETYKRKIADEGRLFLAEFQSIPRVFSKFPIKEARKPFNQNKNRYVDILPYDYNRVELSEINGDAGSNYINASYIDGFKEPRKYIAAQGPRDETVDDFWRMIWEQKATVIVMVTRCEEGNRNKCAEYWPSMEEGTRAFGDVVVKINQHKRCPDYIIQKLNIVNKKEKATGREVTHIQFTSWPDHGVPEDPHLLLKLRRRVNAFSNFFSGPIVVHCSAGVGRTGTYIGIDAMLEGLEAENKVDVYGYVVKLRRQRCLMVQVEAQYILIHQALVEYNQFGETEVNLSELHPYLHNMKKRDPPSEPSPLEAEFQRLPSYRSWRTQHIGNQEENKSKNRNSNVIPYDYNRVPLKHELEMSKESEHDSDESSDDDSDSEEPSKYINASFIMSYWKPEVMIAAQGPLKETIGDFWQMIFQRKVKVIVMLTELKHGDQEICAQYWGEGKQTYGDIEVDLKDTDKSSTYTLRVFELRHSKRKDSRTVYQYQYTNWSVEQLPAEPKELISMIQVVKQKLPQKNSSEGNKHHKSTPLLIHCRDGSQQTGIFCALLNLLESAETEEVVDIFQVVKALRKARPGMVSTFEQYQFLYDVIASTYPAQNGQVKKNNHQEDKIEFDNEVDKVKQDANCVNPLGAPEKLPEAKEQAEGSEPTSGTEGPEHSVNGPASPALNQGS
For assay [12], the target named is Protein Phosphatase, PP2B (Calcineurin). As to the kind of experiment: Protein Phosphatase, PP2B (Calcineurin); substrate pNPP. As to conditions: read-out: Ref Kj. Type of assay: biochemical.
Assay [13] relates to Protein Tyrosine Phosphatase, PTP-Cell. Nature of the assay: Protein Tyrosine Phosphatase, PTP-Cell (Human); substrate pNPP. To be noted: read-out: Ref Kj. The assay is classed as biochemical.
Assay [14] addresses Protein Tyrosine Phosphatase, PTP-B. Nature of the assay: Protein Tyrosine Phosphatase, PTP-B (Human); substrate pNPP. Type of assay: biochemical. As to conditions: read-out: Ref Kj.
In assay [15] the target is GABA Transport. Type of assay: biochemical. As to conditions: read-out: Ref Kj.
Assay [16] addresses Calcium Channel, Type N. The assay is classed as binding. To be noted: read-out: Ref Kj.
The target in assay [17] is Leukotrine D4, LTB4. As to the kind of experiment: Leukotrine D4, LTB4; [3H]LTD4. As to conditions: reference compound, QA/QC; read-out: Ref Kj. Type of assay: binding.
In assay [18] the target is Glutamate, Chloride Dependent Site. As to the kind of experiment: Glutamate, Chloride Dependent Site; [3H]Glutamic Acid. As to conditions: reference compound, QA/QC; read-out: Ref Kj. The assay is classed as binding.
Assay [19] deals with Sodium, Site 2. The assay is classed as binding. To be noted: read-out: Ref Kj.
For assay [20], the target named is Adenosine, A1 (UniProt P25099). Nature of the assay: Adenosine, A1; [3H]CPX. The assay is classed as binding. To be noted: read-out: Ref Kj.
Adenosine, A1, sequence (P25099 whole entry, looked up): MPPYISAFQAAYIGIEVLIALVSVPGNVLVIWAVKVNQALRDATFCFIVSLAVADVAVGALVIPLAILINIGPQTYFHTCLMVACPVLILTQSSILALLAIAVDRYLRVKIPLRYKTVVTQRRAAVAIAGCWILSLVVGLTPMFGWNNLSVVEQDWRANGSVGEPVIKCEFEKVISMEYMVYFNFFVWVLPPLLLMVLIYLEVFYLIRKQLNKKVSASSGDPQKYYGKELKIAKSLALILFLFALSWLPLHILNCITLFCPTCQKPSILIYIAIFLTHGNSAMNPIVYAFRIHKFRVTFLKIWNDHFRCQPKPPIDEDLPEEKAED
For assay [21], the target named is Somatostatin, Non-selective. As to the kind of experiment: Somatostatin, Non-selective; [125]-Somatostatin-14 (Tyr11). The assay is classed as binding. To be noted: reference compound, QA/QC; read-out: Ref Kj.
Assay [22] addresses Thyrotropin Releasing Hormone, TRH. Nature of the assay: Thyrotropin Releasing Hormone, TRH; [3H]-(3MeHis2)TRH. The assay is classed as binding. To be noted: reference compound, QA/QC; read-out: Ref Kj.
Assay [23] concerns the target Ahenylate Cyclase, Forskolin. Nature of the assay: Ahenylate Cyclase, Forskolin; [3H]Forskolin. The assay is classed as binding. As to conditions: reference compound, QA/QC; read-out: Ref Kj.
The target in assay [24] is T4, Thromboxane A2 (Homo sapiens, UniProt P21731).
T4 construct: from human cell lines; endogenous in cells
T4 sequence (P21731 whole entry): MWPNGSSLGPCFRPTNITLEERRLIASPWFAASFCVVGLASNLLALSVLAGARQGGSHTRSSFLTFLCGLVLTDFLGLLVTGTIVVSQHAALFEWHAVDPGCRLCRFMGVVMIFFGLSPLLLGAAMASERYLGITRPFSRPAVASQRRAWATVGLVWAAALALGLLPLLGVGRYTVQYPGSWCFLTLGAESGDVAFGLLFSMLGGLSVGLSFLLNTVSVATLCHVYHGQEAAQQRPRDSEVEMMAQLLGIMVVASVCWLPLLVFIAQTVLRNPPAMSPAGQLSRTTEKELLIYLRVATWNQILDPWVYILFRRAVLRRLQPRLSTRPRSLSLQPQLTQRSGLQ
As to the kind of experiment: Thromboxane A2 (Human); [3H]SQ 29,548. Type of assay: binding. As to conditions: reference compound, QA/QC; read-out: Ref Kj.

Assay [25] has as its target Purinergic, P2Y. As to the kind of experiment: Purinergic, P2Y (Human); [35S]-ATPas. Type of assay: binding. As to conditions: reference compound, QA/QC; read-out: Ref Kj.
Assay [26] has as its target Cholecystokinin, CCK2 (CCKB). Nature of the assay: Cholecystokinin, CCK2 (CCKB); [125I]CCK-8. The assay is classed as binding. As to conditions: read-out: Ref Kj.
For assay [27], the target named is Cholecystokinin, CCK1 (CCKA). Nature of the assay: Cholecystokinin, CCK1 (CCKA); [125I]CCK-8. The assay is classed as binding. To be noted: read-out: Ref Kj.

Structures can show the parent of a compound that is named as a salt. Peptide text beside a SMILES is read from it.

T1 sequence (P21554 whole entry): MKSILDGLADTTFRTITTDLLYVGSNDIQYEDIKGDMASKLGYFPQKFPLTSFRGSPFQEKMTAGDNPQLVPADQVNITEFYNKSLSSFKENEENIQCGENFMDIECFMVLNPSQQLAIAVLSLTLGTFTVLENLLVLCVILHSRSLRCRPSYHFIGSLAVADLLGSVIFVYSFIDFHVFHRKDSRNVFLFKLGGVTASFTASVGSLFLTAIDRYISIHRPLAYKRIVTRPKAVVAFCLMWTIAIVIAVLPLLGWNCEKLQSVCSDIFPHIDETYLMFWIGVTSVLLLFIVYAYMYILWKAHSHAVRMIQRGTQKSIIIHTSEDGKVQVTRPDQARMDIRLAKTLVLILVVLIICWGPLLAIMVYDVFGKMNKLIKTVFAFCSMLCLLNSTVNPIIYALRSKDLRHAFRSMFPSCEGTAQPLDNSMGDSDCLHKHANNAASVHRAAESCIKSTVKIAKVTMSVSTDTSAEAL
Protein Phosphatase, PP2A, sequence (P67775 whole entry): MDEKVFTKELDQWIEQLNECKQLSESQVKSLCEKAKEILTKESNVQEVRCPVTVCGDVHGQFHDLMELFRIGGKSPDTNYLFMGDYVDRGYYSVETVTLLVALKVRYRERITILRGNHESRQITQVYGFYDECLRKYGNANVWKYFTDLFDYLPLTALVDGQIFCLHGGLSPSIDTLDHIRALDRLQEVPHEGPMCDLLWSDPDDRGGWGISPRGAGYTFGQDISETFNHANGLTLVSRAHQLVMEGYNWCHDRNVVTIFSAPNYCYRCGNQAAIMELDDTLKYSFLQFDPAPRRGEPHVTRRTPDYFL
T3 sequence (P10586 1352-1607): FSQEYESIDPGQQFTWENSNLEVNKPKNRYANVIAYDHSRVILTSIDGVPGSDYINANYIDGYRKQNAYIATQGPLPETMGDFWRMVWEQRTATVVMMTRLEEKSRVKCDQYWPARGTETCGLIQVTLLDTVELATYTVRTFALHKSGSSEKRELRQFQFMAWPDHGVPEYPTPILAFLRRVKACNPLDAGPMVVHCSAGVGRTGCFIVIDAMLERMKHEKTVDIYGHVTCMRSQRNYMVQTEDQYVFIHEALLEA

With Charybdotoxin, the Ki in [1] is 0.204 nM. For `CC[C@H](C)[C@H](NC(=O)[C@H](Cc1ccccc1)NC(=O)[C@H](C)NC(=O)[C@H](CC(=O)O)NC(=O)[C@H](CCCCN)NC(=O)[C@H](CO)NC(=O)[C@@H]1CCCN1C(=O)[C@@H]1CCC(=O)N1)C(=O)NCC(=O)N[C@@H](CC(C)C)C(=O)N[C@@H](CCSC)C(N)=O` [Eledoisin] (HELM PEPTIDE1{[Glp].P.S.K.D.A.F.I.G.L.M.[am]}$$$$V2.0), in [2], the Ki was found to be 5.48 nM. In the case of `N[C@H](CC(=O)O)C(=O)O` [D-Aspartic Acid], in assay [3], the Ki was found to be 6540 nM. With `C[N+](C)(C)CCC(=O)c1ccc2ccccc2c1` [beta-NETA], the Ki in assay [4] came out at 425 nM. As for Calyculin, in assay [5], the Ki came to 0.722 nM. Turning to `CCCCCCC(C)(C)c1cc(O)c2c(c1)OC(C)(C)[C@@H]1CC=C(CO)C[C@@H]21` [HU-210], the Ki in assay [6] turned out to be 0.3 nM. In the case of `CCCN1CCC[C@H](c2cccc(O)c2)C1` [R(+)-3-PPP HCl], the Ki in assay [7] turned out to be 1.27 nM. As for (+)-MK-801 HMaleate, the figures for the Ki in assay [8] and in [9] were 2.33 nM and 8.96 nM, respectively. Take Ammonium Molybdate: the Ki in [10] is 117 nM; in [11], 30.9 nM; in [12] it was 90500 nM; in [13], 41.3 nM; in [14], 313 nM. As for `O=C(O)C1CCCNC1` (racemic) [(+/−) Nipecotic acid], the Ki in assay [15] was 13300 nM. For the compound w-Conotoxin GVIA, the Ki in [16] came to 0.0124 nM. Turning to `CCCCC/C=C\C\C=C/C=C/C=C/[C@@H](SC[C@H](N)C(=O)NCC(=O)O)[C@@H](O)CCCC(=O)O` [LTD4], the Ki in [17] was determined as 8.85 nM. Turning to `N[C@@H](CCC(=O)O)C(=O)O` [L-Glutamic acid], the Ki in [18] amounted to 379 nM. In the case of `CCN1C[C@]2(COC)[C@H](O)C[C@H](OC)[C@@]34[C@@H]5C[C@@]6(O)[C@H](OC(=O)c7ccccc7)[C@@H]5[C@@](OC(C)=O)([C@@H]([C@H](OC)[C@H]23)[C@@H]14)[C@@H](O)[C@@H]6OC` [Aconitine], the Ki in [19] was 1300 nM. For `Nc1nc(Cl)nc2c1ncn2[C@@H]1O[C@H](CO)[C@@H](O)[C@H]1O` [2-Chloroadenosine (2-CADO), 2-Chloroadenosine], the Ki in assay [20] was determined as 58.7 nM. As to `C[C@H](N)C(=O)NCC(=O)N[C@H]1CSSC[C@@H](C(=O)O)NC(=O)[C@H](CO)NC(=O)[C@H]([C@@H](C)O)NC(=O)[C@H](Cc2ccccc2)NC(=O)[C@H]([C@@H](C)O)NC(=O)[C@H](CCCCN)NC(=O)[C@H](Cc2c[nH]c3ccccc23)NC(=O)[C@H](Cc2ccccc2)NC(=O)[C@H](Cc2ccccc2)NC(=O)[C@H](CC(N)=O)NC(=O)[C@H](CCCCN)NC1=O` [Somatostatin], the Ki in assay [21] turned out to be 0.768 nM. For (3MeHis2) TRH, the Ki in assay [22] came out at 175 nM. For `C=C[C@@]1(C)CC(=O)[C@]2(O)[C@@]3(C)[C@@H](O)CCC(C)(C)[C@@H]3[C@H](O)[C@H](OC(C)=O)[C@@]2(C)O1` [Forskolin], the Ki in [23] turned out to be 33.8 nM. As to `CCCCC[C@@H](O)/C=C/[C@H]1C[C@H]2C[C@@H]([C@@H]1C/C=C\CCCC(=O)O)C2(C)C` [Pinane-thromboxane A2], in assay [24], the Ki worked out at 30.3 nM. Consider `Nc1ncnc2c1ncn2[C@@H]1O[C@H](COP(=O)(O)OP(O)(O)=S)[C@@H](O)[C@H]1O` [ADPbS, Adenosine b-thio-d], for which, in [25], the Ki worked out at 2120 nM. Regarding CCK-8 (sulfated), the Ki in assay [26] was determined as 0.479 nM; in [27], 0.0228 nM.
